Test results from patent US20220363686A1 (AiCuris GmbH & Co. KG, priority 2018, published 2022).
Where two headings read alike, the source gives them in different places.

Key:
[1] = target: HBV core protein (C-terminal truncated core protein containing 149 amino acids of the N-terminal assembly domain) (UniProt P03146); assay: Biochemical capsid assembly assay (fluorescence quenching); set-up: rows headed: Assembly Activity; other: BODIPY-FL labelled core protein, assembly started with NaCl, read after 6 min; conditions: read-out: Assembly Activity; BODIPY-FL labelled core protein, assembly started with NaCl, read after 6 min
Sequence of HBV core protein (C-terminal truncated core protein containing 149 amino acids of the N-terminal assembly domain) (P03146 whole entry, the tested form may be a part): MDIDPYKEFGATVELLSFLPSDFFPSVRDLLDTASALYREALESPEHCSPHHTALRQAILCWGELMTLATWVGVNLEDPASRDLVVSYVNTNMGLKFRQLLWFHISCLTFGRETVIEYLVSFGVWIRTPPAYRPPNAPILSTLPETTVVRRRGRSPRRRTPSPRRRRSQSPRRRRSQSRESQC
Outline: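 N-terminal assembly domain (residues 1–149) plus C-terminal Cys150, E. coli-expressed, BODIPY-FL-maleimide labelled, used at 1.0–2.0 μM in 50 mM HEPES pH 7.5 with 0.5% DMSO. Assembly started with NaCl ([…]); fluorescence quenching (ex 477/em 525 nm) read after 6 min. 8-point compound series; EC50 by non-linear regression.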

HBV = assay: Determination of HBV DNA from the supernatants of HepAD38 cells (anti-HBV activity); format: cell-based, hepatitis B virus; conditions: Hepatitis B virus, HePAD38, 144 h, HBV DNA in HepAD38 supernatant, day 6, qPCR, read-out: Cell Activity
Outline: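 HepAD38 cells (60,000/well) seeded in tetracycline-free medium to induce HBV, treated with half-log serial compound dilutions for 6 days at 37 °C. HBV DNA purified from filtered supernatant and quantified by real-time PCR against HBV plasmid standards; EC50 from relative copy numbers by non-linear regression.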

[2] = Cell viability assay (AlamarBlue); conditions: human, HepAD38 cells

Compound	IC50 [1]	EC50 (HBV)	CC50 at 6 days [2]	EC50 (HBV; printed as number instead of class symbol)
CN(C(=O)c1cnn2c1CN(C(=O)c1cc3ccccc3[nH]1)CC2)C1(CNCC(F)(F)F)CC1 [Example 80, 5-(1H-indole-2-carbonyl)-N-methyl-N-(1-{[(2,2,2-trifluoroethyl)amino]methyl}cyclopropyl)-4H,5H,6H,7H-pyrazolo[1,5-a]pyrazine-3-carboxamide]	< 5 µM	< 1 µM	> 10 µM	
O=C(NC1COC1)c1cnn2c1CN(C(=O)c1cc3ccccc3[nH]1)CC2 [Example 134, 5-(1H-indole-2-carbonyl)-N-(oxetan-3-yl)-4H,5H,6H,7H-pyrazolo[1,5-a]pyrazine-3-carboxamide]	< 5 µM	1 to 10 µM	> 10 µM	
CNS(=O)(=O)c1cnn2c1CN(C(=O)c1cc3ccccc3[nH]1)CC2 [Example 41, 5-(1H-indole-2-carbonyl)-N-methyl-4H,5H,6H,7H-pyrazolo[1,5-a]pyrazine-3-sulfonamide]	< 5 µM	< 1 µM	> 10 µM	
O=C(O)c1ccccc1C1CC(=O)N(c2cnn3c2CN(C(=O)c2cc4ccccc4[nH]2)CC3)C1 (stereo not drawn) [Example 86, 2-{1-[5-(1H-indole-2-carbonyl)-4H,5H,6H,7H-pyrazolo[1,5-a]pyrazin-3-yl]-5-oxopyrrolidin-3-yl}benzoic Acid]	< 5 µM	1 to 10 µM	> 10 µM	
O=C(NC1(c2ccncc2)CC1)c1cnn2c1CN(C(=O)c1cc3ccccc3[nH]1)CC2 [Example 98, 5-(1H-indole-2-carbonyl)-N-[1-(pyridin-4-yl)cyclopropyl]-4H,5H,6H,7H-pyrazolo[1,5-a]pyrazine-3-carboxamide]	< 5 µM	< 1 µM	> 10 µM	
O=C(O)c1cccc(F)c1C1CC(=O)N(c2cnn3c2CN(C(=O)c2cc4ccccc4[nH]2)CC3)C1 (stereo not drawn) [Example 88, 3-fluoro-2-{1-[5-(1H-indole-2-carbonyl)-4H,5H,6H,7H-pyrazolo[1,5-a]pyrazin-3-yl]-5-oxopyrrolidin-3-yl}benzoic Acid]	< 5 µM		> 10 µM	> 10 µM
O=C(NC1(c2ccccn2)CC1)c1cnn2c1CN(C(=O)c1cc3ccccc3[nH]1)CC2 [Example 61, 5-(1H-indole-2-carbonyl)-N-[1-(pyridin-2-yl)cyclopropyl]-4H,5H,6H,7H-pyrazolo[1,5-a]pyrazine-3-carboxamide]	< 5 µM	< 1 µM	> 10 µM	
C[C@H](NC(=O)c1cnn2c1CN(C(=O)c1cc3ccccc3[nH]1)CC2)C(F)(F)F [Example 78, 5-(1H-indole-2-carbonyl)-N-[(2S)-1,1,1-trifluoropropan-2-yl]-4H,5H,6H,7H-pyrazolo[1,5-a]pyrazine-3-carboxamide]	< 5 µM	< 1 µM	> 10 µM	
O=C(c1cc2ccccc2[nH]1)N1CCn2ncc(C(=O)N3CC(F)(F)CC34CC4)c2C1 [Example 19, 2-(3-{6,6-difluoro-4-azaspiro[2.4]heptane-4-carbonyl}-4H,5H,6H,7H-pyrazolo[1,5-a]pyrazine-5-carbonyl)-1H-indole]	< 5 µM	< 1 µM	> 10 µM	
O=C(c1cc2ccccc2[nH]1)N1CCn2ncc(C(=O)N3CCOCCC34CC4)c2C1 [Example 68, 4-[5-(1H-indole-2-carbonyl)-4H,5H,6H,7H-pyrazolo[1,5-a]pyrazine-3-carbonyl]-7-oxa-4-azaspiro[2.6]nonane]	< 5 µM	< 1 µM	> 10 µM	
C[C@@H](NC(=O)c1cnn2c1CN(C(=O)c1cc3ccccc3[nH]1)CC2)C(F)(F)F [Example 79, 5-(1H-indole-2-carbonyl)-N-[(2R)-1,1,1-trifluoropropan-2-yl]-4H,5H,6H,7H-pyrazolo[1,5-a]pyrazine-3-carboxamide]	< 5 µM	< 1 µM	> 10 µM	
O=C(NC1(COC(F)F)CC1)c1cnn2c1CN(C(=O)c1cc3cc(F)c(F)cc3[nH]1)CC2 [Example 139, 5-(5,6-difluoro-1H-indole-2-carbonyl)-N-{1-[(difluoromethoxy)methyl]cyclopropyl}-4H,5H,6H,7H-pyrazolo[1,5-a]pyrazine-3-carboxamide]	< 5 µM	< 1 µM	> 10 µM	
CN(C(=O)c1cnn2c1CN(C(=O)c1cc3ccccc3[nH]1)CC2)C1([C@H]2OC[C@H](N)CO2)CC1 [Example 141, 5-(1H-indole-2-carbonyl)-N-methyl-N-{1-[(2r,5r)-5-amino-1,3-dioxan-2-yl]cyclopropyl}-4H,5H,6H,7H-pyrazolo[1,5-a]pyrazine-3-carboxamide]	< 5 µM	< 1 µM	> 10 µM	
CC1Cn2ncc(C(=O)N(C)C3CC3)c2CN1C(=O)c1cc2ccccc2[nH]1 (racemic) [Example 2, N-cyclopropyl-5-(1H-indole-2-carbonyl)-N,6-dimethyl-4H,5H,6H,7H-pyrazolo[1,5-a]pyrazine-3-carboxamide]	< 5 µM	< 1 µM	> 10 µM	
CN(CCO)C(=O)c1cnn2c1CN(C(=O)c1cc3c(F)cc(F)cc3[nH]1)CC2 [Example 129, 5-(4,6-difluoro-1H-indole-2-carbonyl)-N-(2-hydroxyethyl)-N-methyl-4H,5H,6H,7H-pyrazolo[1,5-a]pyrazine-3-carboxamide]	< 5 µM	< 1 µM	> 10 µM	
O=C(c1cc2ccccc2[nH]1)N1CCn2ncc(S(=O)(=O)N3CCC(O)CC3)c2C1 [Example 35, 1-{[5-(1H-indole-2-carbonyl)-4H,5H,6H,7H-pyrazolo[1,5-a]pyrazin-3-yl]sulfonyl}piperidin-4-ol]	< 5 µM	< 1 µM	> 10 µM	
O=C(NC1(CCOC(F)F)COC1)c1cnn2c1CN(C(=O)c1cc3ccccc3[nH]1)CC2 [Example 148, N-{3-[2-(difluoromethoxy)ethyl]oxetan-3-yl}-5-(1H-indole-2-carbonyl)-4H,5H,6H,7H-pyrazolo[1,5-a]pyrazine-3-carboxamide]	< 5 µM	< 1 µM	> 10 µM	
O=C(c1cc2ccccc2[nH]1)N1CCn2ncc(C(=O)N(CCOC(F)F)C3CC3)c2C1 [Example 90, N-cyclopropyl-N-[2-(difluoromethoxy)ethyl]-5-(1H-indole-2-carbonyl)-4H,5H,6H,7H-pyrazolo[1,5-a]pyrazine-3-carboxamide]	< 5 µM	< 1 µM	> 10 µM	
CC1Cn2ncc(C(=O)NC3(COC(F)F)CC3)c2CN1C(=O)c1cc2ccccc2[nH]1 (racemic) [Example 130, N-{1-[(difluoromethoxy)methyl]cyclopropyl}-5-(1H-indole-2-carbonyl)-6-methyl-4H,5H,6H,7H-pyrazolo[1,5-a]pyrazine-3-carboxamide]	< 5 µM	< 1 µM	> 10 µM	
COCC1(N(C)C(=O)c2cnn3c2CN(C(=O)c2cc4c(F)cc(F)cc4[nH]2)CC3)CC1 [Example 8, 5-(4,6-difluoro-1H-indole-2-carbonyl)-N-[1-(methoxymethyl)cyclopropyl]-N-methyl-4H,5H,6H,7H-pyrazolo[1,5-a]pyrazine-3-carboxamide]	< 5 µM	< 1 µM	> 10 µM	
O=C(c1cc2c(F)c(F)ccc2[nH]1)N1CCn2ncc(C(=O)N3CCCOCC34CC4)c2C1 [Example 109, 4-[5-(4,5-difluoro-1H-indole-2-carbonyl)-4H,5H,6H,7H-pyrazolo[1,5-a]pyrazine-3-carbonyl]-8-oxa-4-azaspiro[2.6]nonane]	< 5 µM	< 1 µM	> 10 µM	
CN(CCO)C(=O)c1cnn2c1CN(C(=O)c1cc3ccccc3[nH]1)CC2 [Example 77, N-(2-hydroxyethyl)-5-(1H-indole-2-carbonyl)-N-methyl-4H,5H,6H,7H-pyrazolo[1,5-a]pyrazine-3-carboxamide]	< 5 µM	< 1 µM	> 10 µM	
O=C(NC1(COC(F)F)CC1)c1cnn2c1CN(C(=O)c1cc3cc(F)c(Cl)cc3[nH]1)CC2 [Example 92, 5-(6-chloro-5-fluoro-1H-indole-2-carbonyl)-N-{1-[(difluoromethoxy)methyl]cyclopropyl}-4H,5H,6H,7H-pyrazolo[1,5-a]pyrazine-3-carboxamide]	< 5 µM	< 1 µM	> 10 µM	
O=C(c1cc2ccccc2[nH]1)N1CCn2ncc(C3(O)CCC3)c2C1 [Example 45, 1-[5-(1H-indole-2-carbonyl)-4H,5H,6H,7H-pyrazolo[1,5-a]pyrazin-3-yl]cyclobutan-1-ol]	5 to 10 µM	1 to 10 µM	> 10 µM	
Cc1cc(F)cc2[nH]c(C(=O)N3CCn4ncc(C(=O)N5CCCOCC56CC6)c4C3)cc12 [Example 107, 4-[5-(6-fluoro-4-methyl-1H-indole-2-carbonyl)-4H,5H,6H,7H-pyrazolo[1,5-a]pyrazine-3-carbonyl]-8-oxa-4-azaspiro[2.6]nonane]	< 5 µM	< 1 µM	> 10 µM	
